Test results from patent publication US9701959B2, “High throughput screen for biologically active polypeptides” (Invenra Inc., priority 2012, dated 2017).
Ends that are not written are not given here.

The compounds below were run on E. coli MG1655 (assay: Minimal Inhibitory Concentration (MIC) in E. coli, Alamar Blue, hit validation). Settings: MIC at 18 hrs in E. coli; overnight at 35° C., triplicate.
Type: cell-based
Experimental: Equipment: • Absorption and fluorescence plate reader—Tecan Safire • CO2 Incubator
Reagents: • Six chemically synthesized peptides—Biosynthesis Inc. • E. coli MG1655 (ATCC) • LB media (Sigma-Aldrich) • Alamar Blue assay kit (Life Tech)
3) Start an overnight culture of E. coli MG1655 in 5 mL of LB and grow at 37° C. with shaking at 200 rpm. 4) In the morning dilute overnight culture to OD600=0.00075 in 10 mL LB+1 mL Alamar Blue Stain. 5) Make seven (7), 1:2 serial dilutions of each peptide starting at […] in a final volume of 70 μL of PBS. 6) Add 20 μL of serial dilution of peptides in triplicate to a white small volume 96-well plate. Add 20 μl of PBS alone to the 8th well. 7) Add 120 μL of E. coli/Alamar blue dilution to each of the test wells. 8) Incubate overnight (18 hrs) at 35° C.

| Compound | Ave MIC [µM] |
| --- | --- |
| CC[C@H](C)[C@H](NC(=O)CN)C(=O)NCC(=O)N[C@@H](C)C(=O)N[C@H](C(=O)N[C@@H](CC(C)C)C(=O)N[C@@H](CCCCN)C(=O)N[C@H](C(=O)N[C@@H](CC(C)C)C(=O)N[C@H](C(=O)N[C@H](C(=O)NCC(=O)N[C@@H](CC(C)C)C(=O)N1CCC[C@H]1C(=O)N[C@H](C(=O)N[C@@H](CC(C)C)C(=O)N[C@H](C(=O)N[C@@H](CO)C(=O)N[C@@H](Cc1c[nH]c2ccccc12)C(=O)N[C@H](C(=O)N[C@@H](CCCCN)C(=O)N[C@@H](CO)C(=O)N[C@@H](CCCCN)C(=O)N[C@@H](CCCNC(=N)N)C(=O)N[C@@H](CCC(N)=O)C(=O)N[C@@H](CCCCN)C(=O)O)[C@@H](C)CC)[C@@H](C)CC)[C@@H](C)O)[C@@H](C)O)[C@@H](C)O)C(C)C)C(C)C [Hit 1] | 12 |
| GIGALIKVLTTGLPMLISWIKRKRNK [Hit 2] | 14 |
| GIGAIAKVLSTGLPRLISWIKGKRIR [Cont 2, reference compound] | 15 |
| GIGAWTKVLTTGLPGLISWIKRKRLR [Hit 3] | 20 |
| GIGATVKVLSTGLRFLISWIKRKRKY [Cont 1, reference compound] | >30 |
| GIGAVLKVLGTGLPALISWIKFKRFP [Cont 3, reference compound] | >30 |

What follows are compounds tested on NF-κB-Jurkat cells (GFP reporter construct for NF-kappa-B) (assay: Single bead bioactivity testing in 1536-well microtiter plate (GFP fluorescence)). Settings: 1 and 2 beads per well, 4,800 cells per well, 18 hours at 37 C.
Type: cell-based
Experimental: Equipment: • Cell culture incubator (Fisher Scientific) • Microplate reader (Tecan Safire) • Black, clear bottom, 1536-well microtiter plate (Corning)
1) Dilute NF-κB-Jurkat cells to 4×10^6 cells/ml using the supplemented RPMI 1640 growth media.
2) Prepare the 1536 well for the following layout:
3) Add 7. μl of supplemented RMPI 1640 media to all wells labeled “M” in the plate layout above.
4) Create the following cell master mix:
5) Add 3 μl of the cell master mix to the wells labeled “A” and “B” so that when the test and control beads are added the final number of cells is 4,800 per well.
6) Dilute the TNF-bead and Control-beads in supplemented RPMI 1640 to 1-2 beads per 2 μl.
7) Add 2 μl of TNF-beads to the wells of the plate labeled “A” and add 2 μl of the control-beads to the wells of the plate labeled “B”.
8) Incubate the plate for 18 hours at 37 C and 5% CO2.
9) Measure the GFP fluorescence of each well using the Tecan Safire plate reader.
The experiment was performed to determine if a single bead could be used to screen for activity of a protein that induces a cell-reporter in a microtiter plate. 1536 well plates were used to decrease the volume in which the assay was performed. Control beads consisting of a scFv antibody fragment were generated using the same protocol as the tested TNF-beads. The control beads were used to establish a baseline signal for the assay. […]

| Compound | GFP signal relative to baseline (control beads) |
| --- | --- |
| TNF-beads: His-tag, spacer, TEV cleavage site, spacer, and the soluble form of TNF-alpha, SEQ ID NO: 14, on beads | increased signal over the baseline |
